PubChem BioAssay AID1918952 (Molecular Pharmacology Branch, DTP, NCI, 2023)

Tested on: LG0703-F948-PDC complex spheroid viability
Assay: Anticancer human tumor LG0703-F948-PDC patient-derived lung adenocarcinoma cell line growth inhibition
Details: for IC50: curve of first compound; for viability, T/C: stronger effect = lower value
From the text: Multicellular complex tumor spheroid response to LSD1 Inhibitor Iadademstat in combination with a variety of drugs and investigational agents in selected tumor cell lines
The current study was undertaken to assess response to LSD1 inhibitors in combination with standard-of-care drugs and investigational agents in solid tumor complex spheroid models as well as in the K-562 leukemia. Complex spheroids include a stromal component modeled by human endothelial cells (HUVEC) and fibroblasts modeled by human mesenchymal stem cells (MSCs). The concentration ranges selected for each drug and investigational agent were based upon clinically achievable concentrations if the clinical Cmax of the agent was known.
Compounds. The drugs and investigational agents used in this study are listed on Table 1. All of the agents used, including staurosporine (NSC755774) and gemcitabine (NSC613327), were obtained from the Developmental Therapeutics Program, NCI. FDA-approved anticancer drugs are available from the NCI at http://dtp.nci.nih.gov/branches/dscb/oncology_drugset_explanation.html. Drugs and investigational agents were >95% pure by proton nuclear magnetic resonance (NMR) and liquid chromatography/mass spectrometry (LC/MS). Stock solutions were prepared at 400x in DMSO, stored at -70 degrees C, and diluted in fresh medium prior to their use. The final concentration of DMSO in cell culture wells never exceeded 0.25% (v/v). The FDA-approved anticancer drug set is available from the Developmental Therapeutics Program at https://dtp.cancer.gov/organization/dscb/obtaining/available_plates.htm. All drugs and investigational agents were tested over a range starting from a high concentration at or near the clinical Cmax and decreasing in half-log increments. If the clinical Cmax for an agent had not been determined, the highest concentration tested was 10 microM.
Cell Lines. The patient-derived cancer cell (PDC) lines: 292921-168-R-J2-PDC, K24384-001-R-PDC, and 521955-158-R2-J5-PDC pancreatic carcinomas, 556581-035-R-J1 ovarian carcinoma, 324938-238-R-J1-PDC, 855422-203-R-J1-PDC and 883617-216-R-J1-PDC urothelial bladder carcinomas, 743489-274-T-PDC renal cell carcinoma, 138582-R-J1 Merkel cell tumor, K60290-347-R-J1 and K57222-313-R-J1-PDC glioblastomas, 653999-131-R-J2-PDC, LG0703-F948-PDC, and 349418-098-R-PDC non-small cell lung carcinomas, 885512-296-R-J2-PDC, 171881-019-R-J1-PDC breast carcinomas and 186277-243-T-J2-PDC and 233499-124-R-J2-PDC colon carcinomas were obtained from the NCI Patient-Derived Models Repository (PDMR, https://pdmr.cancer.gov). The established cell lines NCI/ADR-RES (RRID:CVCL_14520 and OVCAR-5 (RRID:CVCL_1628) ovarian carcinomas, 786-O (RRID:CVCL_1051) and A498 (RRID:CVCL_A498) renal cell carcinoma, NCI-H211 (ATCC, cat. CRL-5824; RRID:CVCL_1529), NCI-H196 (ATCC, cat. CRL-5823, RRID:CVCL_1509), SW 1271 (ATCC, cat. CRL-2177, RRID:CVCL_1716) and NCI-H1876 (ATCC, cat. CRL-5902, RRID:CVCL_1503) small cell lung carcinomas, MDA-MB-231 (RRID:CVCL_0062) and MDA-MB-468 (RRID:CVCL_0419)breast carcinomas (10-12). Pooled donor human umbilical vein endothelial cells (HUVEC, Lonza, cat. CC-2519) and human mesenchymal stem cells (hMSC, Lonza, cat. PT-2501) were purchased from Lonza (Walkersville, MD).
Cell Culture. All cells were maintained in an incubator at 37 degrees C and 5% CO2 with 95% humidity. The PDC lines were cultured according to standard operating procedures established by the NCI PDMR (https://pdmr.cancer.gov). Briefly all PDCs were thawed and cultured in Matrigel-coated flasks prepared with a working solution of 1X Ham's F-12 nutrient mix, without supplementation (Invitrogen, Waltham, MA, cat. 11765054), 100 U/mL penicillin-streptomycin (Invitrogen, cat. 15140122), and 2.5% Matrigel (Corning Inc., Corning, NY, cat. 354248) for the first three passages. […]

[1] = second compound 0.1 µM, first compound 0.00316 µM
[2] = second compound 0.1 µM, first compound 0.01 µM
[3] = second compound 0.1 µM, first compound 0.0316 µM
[4] = second compound 0.1 µM, first compound 0.1 µM
[5] = second compound 0.316 µM, first compound 0.00316 µM
[6] = second compound 0.316 µM, first compound 0.01 µM
[7] = second compound 0.316 µM, first compound 0.0316 µM
[8] = second compound 0.316 µM, first compound 0.1 µM
[9] = second compound 1 µM, first compound 0.00316 µM
[10] = second compound 1 µM, first compound 0.01 µM
[11] = second compound 1 µM, first compound 0.0316 µM
[12] = second compound 1 µM, first compound 0.1 µM
[13] = second compound 3.16 µM, first compound 0.00316 µM
[14] = second compound 3.16 µM, first compound 0.01 µM
[15] = second compound 3.16 µM, first compound 0.0316 µM
[16] = second compound 3.16 µM, first compound 0.1 µM
[17] = second compound 10 µM, first compound 0.00316 µM
[18] = second compound 10 µM, first compound 0.01 µM
[19] = second compound 10 µM, first compound 0.0316 µM
[20] = second compound 10 µM, first compound 0.1 µM
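Further: spheroids exposed to agents for seven days before readout.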
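Wherever viability, T/C is given: 100% = DMSO vehicle control wells as normalization base.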

CC[C@@]1(O)C(=O)OCc2c1cc1n(c2=O)Cc2cc3c(CN(C)C)c(O)ccc3nc2-1 + NC1CC1c1ccc(-c2cccc(O)c2)cc1 gave an IC50 (second compound 0.1 µM) of over 0.1 µM, an IC50 (second compound 0.316 µM) of over 0.1 µM and an IC50 (second compound 1 µM) of over 0.1 µM. The IC50 (second compound 3.16 µM) was over 0.1 µM, the IC50 (second compound 10 µM) was over 0.1 µM and the viability, T/C (second compound 0.1 µM, first compound 0.000316 µM) was 117%. It also gave a viability, T/C (second compound 0.1 µM, first compound 0.001 µM) of 116%, a viability, T/C [1] of 106% and a viability, T/C [2] of 84.8%. For the same compound, the viability, T/C [3] was 70%, the viability, T/C [4] was 49.7% and the viability, T/C (second compound 0.316 µM, first compound 0.000316 µM) was 118%. For the same compound, the viability, T/C (second compound 0.316 µM, first compound 0.001 µM) was 107%, the viability, T/C [5] was 106% and the viability, T/C [6] was 82.8%. The viability, T/C [7] was 64.5%, the viability, T/C [8] was 55.3% and the viability, T/C (second compound 1 µM, first compound 0.000316 µM) was 114%. For the same compound, the viability, T/C (second compound 1 µM, first compound 0.001 µM) was 109%, the viability, T/C [9] was 97.8% and the viability, T/C [10] was 95.2%. For the same compound, the viability, T/C [11] was 67.1%, the viability, T/C [12] was 54.3% and the viability, T/C (second compound 3.16 µM, first compound 0.000316 µM) was 108%. For the same compound, the viability, T/C (second compound 3.16 µM, first compound 0.001 µM) was 97.2%, the viability, T/C [13] was 100% and the viability, T/C [14] was 89.2%. The viability, T/C [15] was 81.9%, the viability, T/C [16] was 71.5% and the viability, T/C (second compound 10 µM, first compound 0.000316 µM) was 103%. For the same compound, the viability, T/C (second compound 10 µM, first compound 0.001 µM) was 115%, the viability, T/C [17] was 107% and the viability, T/C [18] was 76.5%. The viability, T/C [19] was 78.8% and the viability, T/C [20] was 62.1%.

COc1cc(C2c3cc4c(cc3C(OC3OC5COC(C)OC5C(O)C3O)C3COC(=O)C23)OCO4)cc(OC)c1O (stereo not given) + NC1CC1c1ccc(-c2cccc(O)c2)cc1 showed an IC50 (second compound 0.1 µM) of over 3 µM, an IC50 (second compound 0.316 µM) of over 3 µM and an IC50 (second compound 1 µM) of over 3 µM. For the same compound, the IC50 (second compound 3.16 µM) was over 3 µM, the IC50 (second compound 10 µM) was over 3 µM and the viability, T/C (second compound 0.1 µM, first compound 0.00949 µM) was 117%. It also gave a viability, T/C (second compound 0.1 µM, first compound 0.03 µM) of 126%, a viability, T/C (second compound 0.1 µM, first compound 0.0949 µM) of 101% and a viability, T/C (second compound 0.1 µM, first compound 0.3 µM) of 98.5%. For the same compound, the viability, T/C (second compound 0.1 µM, first compound 0.949 µM) was 89.5%, the viability, T/C (second compound 0.1 µM, first compound 3 µM) was 66.9% and the viability, T/C (second compound 0.316 µM, first compound 0.00949 µM) was 117%. For the same compound, the viability, T/C (second compound 0.316 µM, first compound 0.03 µM) was 111%, the viability, T/C (second compound 0.316 µM, first compound 0.0949 µM) was 106% and the viability, T/C (second compound 0.316 µM, first compound 0.3 µM) was 88.4%. For the same compound, the viability, T/C (second compound 0.316 µM, first compound 0.949 µM) was 92.2%, the viability, T/C (second compound 0.316 µM, first compound 3 µM) was 75.4% and the viability, T/C (second compound 1 µM, first compound 0.00949 µM) was 104%. The viability, T/C (second compound 1 µM, first compound 0.03 µM) was 115%, the viability, T/C (second compound 1 µM, first compound 0.0949 µM) was 105% and the viability, T/C (second compound 1 µM, first compound 0.3 µM) was 95.9%. The viability, T/C (second compound 1 µM, first compound 0.949 µM) was 105%, the viability, T/C (second compound 1 µM, first compound 3 µM) was 77.8% and the viability, T/C (second compound 3.16 µM, first compound 0.00949 µM) was 102%. It also gave a viability, T/C (second compound 3.16 µM, first compound 0.03 µM) of 121%, a viability, T/C (second compound 3.16 µM, first compound 0.0949 µM) of 117% and a viability, T/C (second compound 3.16 µM, first compound 0.3 µM) of 100%. It also gave a viability, T/C (second compound 3.16 µM, first compound 0.949 µM) of 88.1%, a viability, T/C (second compound 3.16 µM, first compound 3 µM) of 86.2% and a viability, T/C (second compound 10 µM, first compound 0.00949 µM) of 104%. For the same compound, the viability, T/C (second compound 10 µM, first compound 0.03 µM) was 116%, the viability, T/C (second compound 10 µM, first compound 0.0949 µM) was 99.9% and the viability, T/C (second compound 10 µM, first compound 0.3 µM) was 103%. The viability, T/C (second compound 10 µM, first compound 0.949 µM) was 81.6% and the viability, T/C (second compound 10 µM, first compound 3 µM) was 66.8%.

Nc1ncn(C2CC(O)C(CO)O2)c(=O)n1 (stereo not given) + NC1CC1c1ccc(-c2cccc(O)c2)cc1 was tested, and the IC50 (second compound 0.1 µM) was over 1 µM, the IC50 (second compound 0.316 µM) was over 1 µM and the IC50 (second compound 1 µM) was over 1 µM. For the same compound, the IC50 (second compound 3.16 µM) was over 1 µM, the IC50 (second compound 10 µM) was over 1 µM and the viability, T/C [1] was 106%. For the same compound, the viability, T/C [2] was 111%, the viability, T/C [3] was 99.3% and the viability, T/C [4] was 116%. The viability, T/C (second compound 0.1 µM, first compound 0.316 µM) was 85.4%, the viability, T/C (second compound 0.1 µM, first compound 1 µM) was 88.9% and the viability, T/C [5] was 116%. The viability, T/C [6] was 117%, the viability, T/C [7] was 106% and the viability, T/C [8] was 95.2%. The viability, T/C (second compound 0.316 µM, first compound 0.316 µM) was 95.7%, the viability, T/C (second compound 0.316 µM, first compound 1 µM) was 94.3% and the viability, T/C [9] was 106%. It also gave a viability, T/C [10] of 103%, a viability, T/C [11] of 104% and a viability, T/C [12] of 95.7%. For the same compound, the viability, T/C (second compound 1 µM, first compound 0.316 µM) was 96.3%, the viability, T/C (second compound 1 µM, first compound 1 µM) was 94.6% and the viability, T/C [13] was 108%. It also gave a viability, T/C [14] of 112%, a viability, T/C [15] of 99.8% and a viability, T/C [16] of 89.7%. The viability, T/C (second compound 3.16 µM, first compound 0.316 µM) was 105%, the viability, T/C (second compound 3.16 µM, first compound 1 µM) was 105% and the viability, T/C [17] was 103%. It also gave a viability, T/C [18] of 104%, a viability, T/C [19] of 107% and a viability, T/C [20] of 106%. For the same compound, the viability, T/C (second compound 10 µM, first compound 0.316 µM) was 98.4% and the viability, T/C (second compound 10 µM, first compound 1 µM) was 95.3%.
